In data set [1] the test system is feline infectious peritonitis virus (FPIV). The settings on record: Kim et al. 2016; disease otherwise 100% lethal; cited from earlier work.
The test system of a further data set is HEK 293 cells. Conditions: all GC376 concentrations (FIG. 11B).

The text below walks through data of US20230341397A1, “PROTEASE BIOSENSORS AND METHODS OF VIRUS DETECTION” (Montana Molecular LLC, priority 2020, published 2023).

As to `CC(C)C[C@H](NC(=O)OCc1ccccc1)C(=O)N[C@@H](C[C@@H]1CCNC1=O)C(O)S(=O)(=O)[O-].[Na+]` (some centres unmarked) [GC376], the “outcome in cats with clinical FPIV” value in data set [1] is listed as “rescues them”. The “cell death / red fluorescent protein signal” value in the data set with HEK 293 cells was “not due to cell death”.
